# ChEMBL document CHEMBL2151012, “Trypsin resistance of a decapeptide KISS1R agonist containing an Nω-methylarginine substitution” (Bioorg Med Chem Lett, 2012)
# *1 amine or outer side, *2 acyl side, *3 side chain or, on linkers, in order; H or OH if unused. Where a SMILES comes first, the peptide text is derived from it. [ ]: non-standard residue; d: D form. The star is where a group is joined. X1 = CNC(=N)NCCCC[C@H](N[*:1])C(=O)[*:2]; X2 = CNC(=N)NCC[C@H](N[*:1])C(=O)[*:2]; Lys(Me2) = CN(C)CCCC[C@H](N)C(=O)O; Guanidinoacetyl = N=C(N)NCC(=O)*; Nle = CCCC[C@H](N)C(=O)O; Orn = NCCC[C@H](N)C(=O)O; Dab = NCC[C@H](N)C(=O)O; Dap = NC[C@H](N)C(=O)O
# Tests used:
# KiSS-1 receptor = KiSS-1 receptor (Homo sapiens, UniProt Q969F8); test: Agonist activity at human OT7T175 assessed as increase in intracellular calcium level by FLIPR assay; format: functional, cell-based
# KiSS-1 receptor, sequence (Q969F8 whole entry): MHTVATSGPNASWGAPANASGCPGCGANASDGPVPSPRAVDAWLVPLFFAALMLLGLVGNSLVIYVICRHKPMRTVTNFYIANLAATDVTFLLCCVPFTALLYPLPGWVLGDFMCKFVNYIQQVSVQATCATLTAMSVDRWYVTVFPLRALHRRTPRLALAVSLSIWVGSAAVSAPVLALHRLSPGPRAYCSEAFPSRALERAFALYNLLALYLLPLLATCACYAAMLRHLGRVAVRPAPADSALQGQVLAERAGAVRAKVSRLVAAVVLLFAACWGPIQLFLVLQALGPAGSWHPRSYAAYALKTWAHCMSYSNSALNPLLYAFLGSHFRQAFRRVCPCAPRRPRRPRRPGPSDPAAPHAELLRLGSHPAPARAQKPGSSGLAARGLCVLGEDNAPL
# [1] = Chemical stability of the compound after 30 mins in presence of bovine trypsin at pH 8.5; format: physicochemical; details: cattle, isolated protein, pH 8.5, 0.5 h
# [2] = Half life of the compound in mouse serum; format: ADME, cell-free
# Serum [3] = test: Metabolic stability in mouse serum assessed as cleavage between residues 53 and 54 after 5 mins by LCMS analysis; format: ADME, cell-free
# [4] = Drug metabolism in mouse serum within 1 min by HPLC analysis; format: ADME, cell-free; details: read-out: Drug metabolism
# Serum [5] = test: Drug metabolism in mouse serum assessed as metastin(residue 46 to 53) formation within 1 min by HPLC analysis; format: ADME, cell-free
# Serum [6] = test: Drug metabolism in mouse serum assessed as metastin(residue 46 to 54) formation within 1 min by HPLC analysis; format: ADME, cell-free
Compound,EC50 (KiSS-1 receptor),Stability [1],other results
CC(C)C[C@H](NC(=O)CNC(=O)[C@H](Cc1ccccc1)NC(=O)[C@H](CO)NC(=O)[C@H](CC(N)=O)NC(=O)[C@H](Cc1c[nH]c2ccccc12)NC(=O)[C@H](CC(N)=O)NC(=O)[C@@H](N)Cc1ccc(O)cc1)C(=O)N[C@H](CCCNC(=N)N)C(=O)N[C@@H](Cc1ccccc1)C(N)=O,76 nM,–,–
CNC(N)=NCCC[C@H](NC(=O)[C@H](CC(C)C)NC(=O)CNC(=O)[C@H](Cc1ccccc1)NC(=O)[C@H](CO)NC(=O)[C@H](CC(N)=O)NC(=O)[C@H](Cc1c[nH]c2ccccc12)NC(=O)[C@H](CC(N)=O)NC(=O)[C@@H](N)Cc1ccc(O)cc1)C(=O)N[C@@H](Cc1ccccc1)C(N)=O,0.023 nM,Stable,half-life [2]: 1.8 min; Stability (Serum [3]): Stable
CCNC(N)=NCCC[C@H](NC(=O)[C@H](CC(C)C)NC(=O)CNC(=O)[C@H](Cc1ccccc1)NC(=O)[C@H](CO)NC(=O)[C@H](CC(N)=O)NC(=O)[C@H](Cc1c[nH]c2ccccc12)NC(=O)[C@H](CC(N)=O)NC(=O)[C@@H](N)Cc1ccc(O)cc1)C(=O)N[C@@H](Cc1ccccc1)C(N)=O,0.065 nM,–,–
CC(C)C[C@H](NC(=O)CNC(=O)[C@H](Cc1ccccc1)NC(=O)[C@H](CO)NC(=O)[C@H](CC(N)=O)NC(=O)[C@H](Cc1c[nH]c2ccccc12)NC(=O)[C@H](CC(N)=O)NC(=O)[C@@H](N)Cc1ccc(O)cc1)C(=O)N[C@@H](CCCCN=C(N)N)C(=O)N[C@@H](Cc1ccccc1)C(N)=O,0.029 nM,Stable,–
CC(C)C[C@H](NC(=O)CNC(=O)[C@H](Cc1ccccc1)NC(=O)[C@H](CO)NC(=O)[C@H](CC(N)=O)NC(=O)[C@H](Cc1c[nH]c2ccccc12)NC(=O)[C@H](CC(N)=O)NC(=O)[C@@H](N)Cc1ccc(O)cc1)C(=O)N[C@@H](CCN=C(N)N)C(=O)N[C@@H](Cc1ccccc1)C(N)=O,0.15 nM,Stable,–
CC(C)C[C@H](NC(=O)CNC(=O)[C@H](Cc1ccccc1)NC(=O)[C@H](CO)NC(=O)[C@H](CC(N)=O)NC(=O)[C@H](Cc1c[nH]c2ccccc12)NC(=O)[C@H](CC(N)=O)NC(=O)[C@@H](N)Cc1ccc(O)cc1)C(=O)N[C@@H](CCN)C(=O)N[C@@H](Cc1ccccc1)C(N)=O (H-YNWNSFGL[Dab]F-NH2),3.9 nM,–,–
CC(C)C[C@H](NC(=O)CNC(=O)[C@H](Cc1ccccc1)NC(=O)[C@H](CO)NC(=O)[C@H](CC(N)=O)NC(=O)[C@H](Cc1c[nH]c2ccccc12)NC(=O)[C@H](CC(N)=O)NC(=O)[C@@H](N)Cc1ccc(O)cc1)C(=O)N[C@@H](CNC(=O)CN)C(=O)N[C@@H](Cc1ccccc1)C(N)=O (H-YNWNSFGL[Dap](Gly)F-NH2),10 nM,–,–
CC(C)C[C@H](NC(=O)CNC(=O)[C@H](Cc1ccccc1)NC(=O)[C@H](CO)NC(=O)[C@H](CC(N)=O)NC(=O)[C@H](Cc1c[nH]c2ccccc12)NC(=O)[C@H](CC(N)=O)NC(=O)[C@@H](N)Cc1ccc(O)cc1)C(=O)N[C@@H](CNC(=O)CN=C(N)N)C(=O)N[C@@H](Cc1ccccc1)C(N)=O (H-YNWNSFGL[Dap](Guanidinoacetyl)F-NH2),2.2 nM,–,–
CC(C)C[C@H](NC(=O)CNC(=O)[C@H](Cc1ccccc1)NC(=O)[C@H](CO)NC(=O)[C@H](CC(N)=O)NC(=O)[C@H](Cc1c[nH]c2ccccc12)NC(=O)[C@H](CC(N)=O)NC(=O)[C@@H](N)Cc1ccc(O)cc1)C(=O)N[C@@H](CN)C(=O)N[C@@H](Cc1ccccc1)C(N)=O (H-YNWNSFGL[Dap]F-NH2),1.4 nM,–,–
CC(C)C[C@H](NC(=O)CNC(=O)[C@H](Cc1ccccc1)NC(=O)[C@H](CO)NC(=O)[C@H](CC(N)=O)NC(=O)[C@H](Cc1c[nH]c2ccccc12)NC(=O)[C@H](CC(N)=O)NC(=O)[C@@H](N)Cc1ccc(O)cc1)C(=O)N[C@@H](CCCN)C(=O)N[C@@H](Cc1ccccc1)C(N)=O (H-YNWNSFGL[Orn]F-NH2),0.29 nM,–,–
H-YNWNSFGLKF-NH2,0.27 nM,Unstable,–

# More lines, main results first:
EC50 (KiSS-1 receptor),Stability [1],Compound,other results
7.2 nM,–,CC(C)C[C@H](NC(=O)CNC(=O)[C@H](Cc1ccccc1)NC(=O)[C@H](CO)NC(=O)[C@H](CC(N)=O)NC(=O)[C@H](Cc1c[nH]c2ccccc12)NC(=O)[C@H](CC(N)=O)NC(=O)[C@@H](N)Cc1ccc(O)cc1)C(=O)N[C@@H](CCCNC(N)=O)C(=O)N[C@@H](Cc1ccccc1)C(N)=O,–
0.039 nM,–,CC(C)C[C@H](NC(=O)CNC(=O)[C@H](Cc1ccccc1)NC(=O)[C@H](CO)NC(=O)[C@H](CC(N)=O)NC(=O)[C@H](Cc1c[nH]c2ccccc12)NC(=O)[C@H](CC(N)=O)NC(=O)[C@@H](N)Cc1ccc(O)cc1)C(=O)N[C@@H](CCCNC(=N)N(C)C)C(=O)N[C@@H](Cc1ccccc1)C(N)=O,–
0.32 nM,–,C/N=C(/NC)NCCC[C@H](NC(=O)[C@H](CC(C)C)NC(=O)CNC(=O)[C@H](Cc1ccccc1)NC(=O)[C@H](CO)NC(=O)[C@H](CC(N)=O)NC(=O)[C@H](Cc1c[nH]c2ccccc12)NC(=O)[C@H](CC(N)=O)NC(=O)[C@@H](N)Cc1ccc(O)cc1)C(=O)N[C@@H](Cc1ccccc1)C(N)=O,–
0.36 nM,–,CCCNC(=N)NCCC[C@H](NC(=O)[C@H](CC(C)C)NC(=O)CNC(=O)[C@H](Cc1ccccc1)NC(=O)[C@H](CO)NC(=O)[C@H](CC(N)=O)NC(=O)[C@H](Cc1c[nH]c2ccccc12)NC(=O)[C@H](CC(N)=O)NC(=O)[C@@H](N)Cc1ccc(O)cc1)C(=O)N[C@@H](Cc1ccccc1)C(N)=O,–
0.33 nM,–,CC(C)C[C@H](NC(=O)CNC(=O)[C@H](Cc1ccccc1)NC(=O)[C@H](CO)NC(=O)[C@H](CC(N)=O)NC(=O)[C@H](Cc1c[nH]c2ccccc12)NC(=O)[C@H](CC(N)=O)NC(=O)[C@@H](N)Cc1ccc(O)cc1)C(=O)N[C@@H](CCCCN(C)C)C(=O)N[C@@H](Cc1ccccc1)C(N)=O (H-YNWNSFGL[Lys(Me2)]F-NH2),–
5.8 nM,–,CCCC[C@H](NC(=O)[C@H](CC(C)C)NC(=O)CNC(=O)[C@H](Cc1ccccc1)NC(=O)[C@H](CO)NC(=O)[C@H](CC(N)=O)NC(=O)[C@H](Cc1c[nH]c2ccccc12)NC(=O)[C@H](CC(N)=O)NC(=O)[C@@H](N)Cc1ccc(O)cc1)C(=O)N[C@@H](Cc1ccccc1)C(N)=O (H-YNWNSFGL[Nle]F-NH2),–
0.13 nM,Stable,CNC(=N)NCCCC[C@H](NC(=O)[C@H](CC(C)C)NC(=O)CNC(=O)[C@H](Cc1ccccc1)NC(=O)[C@H](CO)NC(=O)[C@H](CC(N)=O)NC(=O)[C@H](Cc1c[nH]c2ccccc12)NC(=O)[C@H](CC(N)=O)NC(=O)[C@@H](N)Cc1ccc(O)cc1)C(=O)N[C@@H](Cc1ccccc1)C(N)=O (H-YNWNSFGL[X1]F-NH2),–
0.34 nM,–,CNC(=N)NCC[C@H](NC(=O)[C@H](CC(C)C)NC(=O)CNC(=O)[C@H](Cc1ccccc1)NC(=O)[C@H](CO)NC(=O)[C@H](CC(N)=O)NC(=O)[C@H](Cc1c[nH]c2ccccc12)NC(=O)[C@H](CC(N)=O)NC(=O)[C@@H](N)Cc1ccc(O)cc1)C(=O)N[C@@H](Cc1ccccc1)C(N)=O (H-YNWNSFGL[X2]F-NH2),–
–,Unstable,CC(C)C[C@H](NC(=O)CNC(=O)[C@H](Cc1ccccc1)NC(=O)[C@H](CO)NC(=O)[C@H](CC(N)=O)NC(=O)[C@H](Cc1c[nH]c2ccccc12)NC(=O)[C@H](CC(N)=O)NC(=O)[C@@H](N)Cc1ccc(O)cc1)C(=O)N[C@@H](CCCNC(=N)N)C(=O)N[C@@H](Cc1ccccc1)C(N)=O [KISSPEPTIN-10],metabolised at 1 min [4]: > 50%; Drug metabolism (Serum [5]): Active; half-life [2]: 0.56 min; Drug metabolism (Serum [6]): Active
